Measured values from patent US20040043043A1, “Preparation of emulsions and concentrates thereof” (priority 2000, published 2004).

Columns and labels:
[1] = Chemical stability study: vitamin contents on storage at 20 °C/ambient RH; type: physicochemical; conditions: for Degraded / Content after 18 months / Recovery (initial versus nominal): Example 4 syrup; for Degraded: 18 months at 20 °C/ambient RH, '+' = increase; for Recovery (initial versus nominal): two batches; for Initial content: Example 4 vitamin and mineral syrup
[2] = as above; type: physicochemical; conditions: Example 1 syrup; for Degraded: 18 months at 20 °C/ambient RH, '+' = increase; for Recovery (initial versus nominal): two batches
Experimental: A stability study was carried out in order to investigate the chemical stability of the liquid multivitamin product. The product was manufactured according to the protocol set out in Example 1. Two production batches were prepared and subjected to a stability study. The following sampling times were used:
20° C./ambient 0, 3, 6, 12 and 18 months Relative Humidity (RH):
The following results for the vitamin contents after 18 months were obtained for the two production batches respectively at 20° C./ambient RH: […]

Row | Molecule | Degraded [1] | Content after 18 months ([1]; batch 1, 20 °C/ambient RH) | Content after 18 months ([1]; batch 2, 20 °C/ambient RH) | Recovery (initial versus nominal) [1] | Initial content ([1]; batch 1, time 0) | Initial content ([1]; batch 2, time 0) | Degraded [2] | Vitamin content after 18 months ([2]; batch 1, 20 °C/ambient RH) | Vitamin content after 18 months ([2]; batch 2, 20 °C/ambient RH) | Initial vitamin content ([2]; production batch 1, time 0) | Initial vitamin content ([2]; production batch 2, time 0) | Recovery (initial versus nominal) [2]
1 | Vitamin B12 | 16.7% | 9.7 μg/5 ml | 9.8 μg/5 ml | 104.5% | 11.6 μg/5 ml | 11.8 μg/5 ml | – | – | – | – | – | –
2 | CC(C)(CO)[C@@H](O)C(=O)NCCC(=O)O [Pantothenic acid] | 11.1% | 9.2, 9.2 mg/5 ml | 9.2, 9.2 mg/5 ml | 101.5% | 10.4 mg/5 ml | 10.3 mg/5 ml | 16% | 3.6, 3.6 mg/10 ml | 3.6, 3.6 mg/10 ml | 4.3 mg/10 ml | 4.4 mg/10 ml | 98.9%
3 | O=C1O[C@H]([C@@H](O)CO)C(O)=C1O [Ascorbic acid] | 32.8% | 35.7 mg/5 ml | 34.9 mg/5 ml | 93.8% | 53.0 mg/5 ml | 52.0 mg/5 ml | 20% | 42.8 mg/10 ml | 43.6 mg/10 ml | 54.4 mg/10 ml | 55.3 mg/10 ml | 97.4%
4 | CC1=C(/C=C/C(C)=C/C=C/C(C)=C/CO)C(C)(C)CCC1 [Retinol] | 13% | 1869 IU/5 ml | 1862 IU/5 ml | 110.0% | 2145, 2145 IU/5 ml | 2145, 2145 IU/5 ml | 16% | 518 μg/10 ml | 525 μg/10 ml | 623 μg/10 ml | 628 μg/10 ml | 113%
5 | C=C1CC[C@H](O)C/C1=C/C=C1\CCC[C@]2(C)[C@@H]([C@H](C)CCCC(C)C)CC[C@@H]12 [Cholecalciferol] | +2.5% | 519 IU/5 ml | 502 IU/5 ml | 92.2% | 502 IU/5 ml | 494 IU/5 ml | 10% | 7.3, 7.3 μg/10 ml | 7.3, 7.3 μg/10 ml | 8.0 μg/10 ml | 8.1 μg/10 ml | 97.6%
6 | O=C(O)CCCC[C@@H]1SC[C@@H]2NC(=O)N[C@@H]21 [Biotin] | 9.8% | 103 μg/5 ml | 100 μg/5 ml | 102.3% | 109 μg/5 ml | 116 μg/5 ml | – | – | – | – | – | –
7 | Cc1cc2nc3c(=O)[nH]c(=O)nc-3n(C[C@H](O)[C@H](O)[C@H](O)CO)c2cc1C [Riboflavine] | 4.0% | 1.19, 1.19 mg/5 ml | 1.19, 1.19 mg/5 ml | 93.9% | 1.25 mg/5 ml | 1.23 mg/5 ml | +2% | 1.08 mg/10 ml | 1.09 mg/10 ml | 1.05 mg/10 ml | 1.06 mg/10 ml | 95.9%
8 | [Zn] [Zinc] | 1.2% | 8.4 mg/5 ml | 8.2 mg/5 ml | 102.5% | 8.2, 8.2 mg/5 ml | 8.2, 8.2 mg/5 ml | – | – | – | – | – | –
9 | Cc1ncc(CO)c(CO)c1O [Pyridoxine] | +1.1% | 0.89 mg/5 ml | 0.88 mg/5 ml | 99.4% | 0.88 mg/5 ml | 0.87 mg/5 ml | +2% | 1.25 mg/10 ml | 1.24 mg/10 ml | 1.21 mg/10 ml | 1.22 mg/10 ml | 96.4%
10 | Cc1c(C)c2c(c(C)c1O)CC[C@@](C)(CCC[C@H](C)CCC[C@H](C)CCCC(C)C)O2 [D-α-tocopherol] | 4.0% | 12.0 IU/5 ml | 11.9 IU/5 ml | 103.8% | 12.5 IU/5 ml | 12.4 IU/5 ml | 2% | 6.1 mg/10 ml | 6.2 mg/10 ml | 6.2 mg/10 ml | 6.3 mg/10 ml | 99.2%
11 | Cc1ncc(C[n+]2csc(CCO)c2C)c(N)n1 [Thiamine] | 7.9% | 1.16, 1.16 mg/5 ml | 1.16, 1.16 mg/5 ml | 96.9% | 1.27 mg/5 ml | 1.25 mg/5 ml | 8% | 0.88 mg/10 ml | 0.89 mg/10 ml | 0.96 mg/10 ml | 0.97 mg/10 ml | 97.5%
12 | Nc1nc2ncc(CNc3ccc(C(=O)N[C@@H](CCC(=O)O)C(=O)O)cc3)nc2c(=O)[nH]1 [Folic acid] | 7.9% | 255 μg/5 ml | 244 μg/5 ml | 96.8% | 276 μg/5 ml | 266 μg/5 ml | 21% | 71.4 μg/10 ml | 72.5 μg/10 ml | 92.1 μg/10 ml | 92.2 μg/10 ml | 102.4%
13 | NC(=O)c1cccnc1 [Nicotinamide] | 4.7% | 18.5 mg/5 ml | 18.4 mg/5 ml | 100.8% | 19.5 mg/5 ml | 19.2 mg/5 ml | 4% | 11.6 mg/10 ml | 11.9 mg/10 ml | 12.2 mg/10 ml | 12.3 mg/10 ml | 97.2%
14 | CC1=C(/C=C/C(C)=C/C=C/C(C)=C/C=C/C=C(C)/C=C/C=C(C)/C=C/C2=C(C)CCCC2(C)C)C(C)(C)CCC1 [Betacaroten] | +6.3% | 2315 IU/5 ml | 2279 IU/5 ml | 110.8% | 2172 IU/5 ml | 2148 IU/5 ml | – | – | – | – | – | –
